Measured values published in US12473304B2, “Heterocyclic PAD4 inhibitors” (BRISTOL-MYERS SQUIBB COMPANY, priority 2020, dated 2025).

Target: human PAD4 (hPAD4) (Homo sapiens (Human), UniProt Q9UM07)
Assay: RFMS Human PAD4 Functional Assay 1
Assay type: biochemical
Details: RFMS assay 1; 5 nM hPAD4, 250 μM BAEE substrate, 50 μM calcium, 37° C.
In short: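 Recombinant hPAD4 (5 nM) was preincubated with compound (top 50 μM, 0.5% DMSO) for 30 min at 37 °C, then reacted with 250 μM BAEE for 90 min at 37 °C in pH 7.5 HEPES buffer with 50 μM calcium and 5 μM TPEN. Product was derivatized with phenyl glyoxal and quantified by RapidFire MS.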

Sequence of human PAD4 (hPAD4) (Q9UM07 whole entry): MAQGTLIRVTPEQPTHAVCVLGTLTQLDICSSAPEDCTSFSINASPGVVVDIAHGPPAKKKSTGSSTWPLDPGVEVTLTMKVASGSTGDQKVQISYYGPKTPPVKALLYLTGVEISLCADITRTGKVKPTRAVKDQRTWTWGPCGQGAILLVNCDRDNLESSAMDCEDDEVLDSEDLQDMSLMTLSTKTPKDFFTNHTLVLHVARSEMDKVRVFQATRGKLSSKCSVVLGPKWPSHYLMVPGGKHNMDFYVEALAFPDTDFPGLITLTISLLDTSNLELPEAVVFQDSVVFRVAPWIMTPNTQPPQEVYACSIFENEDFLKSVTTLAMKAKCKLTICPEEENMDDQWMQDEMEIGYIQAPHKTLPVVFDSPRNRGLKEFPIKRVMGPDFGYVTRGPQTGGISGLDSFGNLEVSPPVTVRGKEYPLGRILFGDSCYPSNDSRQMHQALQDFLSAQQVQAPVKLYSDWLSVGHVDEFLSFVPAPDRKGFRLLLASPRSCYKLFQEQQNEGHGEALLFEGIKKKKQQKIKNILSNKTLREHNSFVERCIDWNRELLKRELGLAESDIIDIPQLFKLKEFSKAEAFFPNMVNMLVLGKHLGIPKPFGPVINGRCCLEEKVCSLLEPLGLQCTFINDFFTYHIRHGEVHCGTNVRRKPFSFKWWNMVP

SMILES	IC50
COc1cc(C(=O)N2C[C@H](N)C[C@@H](F)C2)cn2nc(-c3cc4ccc(-c5ccc(CNS(C)(=O)=O)cc5)cc4n3CC3CC3)c(C)c12 [Example 224, N-{[4-(2-{6-[(3R,5R)-3-Amino-5-fluoropiperidine-1-carbonyl]-4-methoxy-3-methylpyrazolo[1,5-a]pyridin-2-yl}-1-(cyclopropylmethyl)-1H-indol-6-yl)phenyl]methyl}methanesulfonamide]	1070 nM
COc1cc(C(=O)N2C[C@H](N)C[C@@H](F)C2)cn2nc(-c3cc4ccc(-c5cc(F)c6[nH]c(=O)ccc6c5C)cc4n3CC3CC3)c(C)c12 [Example 225, 6-(2-{6-[(3R,5R)-3-Amino-5-fluoropiperidine-1-carbonyl]-4-methoxy-3-methylpyrazolo[1,5-a]pyridin-2-yl}-1-(cyclopropylmethyl)-1H-indol-6-yl)-8-fluoro-5-methyl-1,2-dihydroquinolin-2-one]	80 nM
COc1cc(C(=O)N2C[C@H](N)C[C@@H](F)C2)cn2nc(-c3cc4ccc(-c5ccc(NC(C)=O)nc5)cc4n3CC3CC3)c(C)c12 [Example 226, N-[5-(2-{6-[(3R,5R)-3-Amino-5-fluoropiperidine-1-carbonyl]-4-methoxy-3-methylpyrazolo[1,5-a]pyridin-2-yl}-1-(cyclopropylmethyl)-1H-indol-6-yl)pyridin-2-yl]acetamide]	50 nM
COc1cc(C(=O)N2CCC[C@@H](N)C2)cn2nc(-c3cc4ccc(-c5cccc(CO)c5)cc4n3CC3CC3)c(C)c12 [Example 227, [3-(2-{6-[(3R)-3-Aminopiperidine-1-carbonyl]-4-methoxy-3-methylpyrazolo[1,5-a]pyridin-2-yl}-1-(cyclopropylmethyl)-1H-indol-6-yl)phenyl]methanol]	950 nM
COc1cc(C(=O)N2CCC[C@@H](N)C2)cn2nc(-c3cc4ccc(-c5ccc(CNC(C)=O)cc5)cc4n3CC3CC3)c(C)c12 [Example 228, N-{[4-(2-{6-[(3R)-3-Aminopiperidine-1-carbonyl]-4-methoxy-3-methylpyrazolo[1,5-a]pyridin-2-yl}-1-(cyclopropylmethyl)-1H-indol-6-yl)phenyl]methyl}acetamide]	930 nM
COc1cc(C(=O)N2CCC[C@@H](N)C2)cn2nc(-c3cc4ccc(-c5ccc(C(N)=O)cc5)cc4n3CC3CC3)c(C)c12 [Example 229, 4-(2-{6-[(3R)-3-Aminopiperidine-1-carbonyl]-4-methoxy-3-methylpyrazolo[1,5-a]pyridin-2-yl}-1-(cyclopropylmethyl)-1H-indol-6-yl)benzamide]	130 nM
COc1cc(C(=O)N2CCC[C@@H](N)C2)cn2nc(-c3cc4ccc(-c5ccc(C(=O)N(C)C)cc5)cc4n3CC3CC3)c(C)c12 [Example 230, 4-(2-{6-[(3R)-3-Aminopiperidine-1-carbonyl]-4-methoxy-3-methylpyrazolo[1,5-a]pyridin-2-yl}-1-(cyclopropylmethyl)-1H-indol-6-yl)-N,N-dimethylbenzamide]	320 nM
COc1cc(C(=O)N2CCC[C@@H](N)C2)cn2nc(-c3cc4ccc(-c5ccc(NS(C)(=O)=O)cc5)cc4n3CC3CC3)c(C)c12 [Example 231, N-[4-(2-{6-[(3R)-3-Aminopiperidine-1-carbonyl]-4-methoxy-3-methylpyrazolo[1,5-a]pyridin-2-yl}-1-(cyclopropylmethyl)-1H-indol-6-yl)phenyl]methanesulfonamide]	460 nM
COc1cc(C(=O)N2CCC[C@@H](N)C2)cn2nc(-c3cc4ccc(-c5cccc(CNC(C)=O)c5)cc4n3CC3CC3)c(C)c12 [Example 232, N-{[3-(2-{6-[(3R)-3-Aminopiperidine-1-carbonyl]-4-methoxy-3-methylpyrazolo[1,5-a]pyridin-2-yl}-1-(cyclopropylmethyl)-1H-indol-6-yl)phenyl]methyl}acetamide]	900 nM
COc1cc(C(=O)N2CCC[C@@H](N)C2)cn2nc(-c3cc4ccc(-c5ccccc5CO)cc4n3CC3CC3)c(C)c12 [Example 233, [2-(2-{6-[(3R)-3-Aminopiperidine-1-carbonyl]-4-methoxy-3-methylpyrazolo[1,5-a]pyridin-2-yl}-1-(cyclopropylmethyl)-1H-indol-6-yl)phenyl]methanol]	620 nM
COc1cc(C(=O)N2CCC[C@@H](N)C2)cn2nc(-c3cc4ccc(-c5ccc(CNS(C)(=O)=O)cc5)cc4n3CC3CC3)c(C)c12 [Example 234, N-{[4-(2-{6-[(3R)-3-Aminopiperidine-1-carbonyl]-4-methoxy-3-methylpyrazolo[1,5-a]pyridin-2-yl}-1-(cyclopropylmethyl)-1H-indol-6-yl)phenyl]methyl}methanesulfonamide]	1140 nM
COc1cc(C(=O)N2CCC[C@@H](N)C2)cn2nc(-c3cc4ccc(-c5cccc(CNS(C)(=O)=O)c5)cc4n3CC3CC3)c(C)c12 [Example 235, N-{[3-(2-{6-[(3R)-3-Aminopiperidine-1-carbonyl]-4-methoxy-3-methylpyrazolo[1,5-a]pyridin-2-yl}-1-(cyclopropylmethyl)-1H-indol-6-yl)phenyl]methyl}methanesulfonamide]	250 nM
COc1cc(C(=O)N2CCC[C@@H](N)C2)cn2nc(-c3cc4ccc(-c5ccccc5C(N)=O)cc4n3CC3CC3)c(C)c12 [Example 237, 2-(2-{6-[(3R)-3-Aminopiperidine-1-carbonyl]-4-methoxy-3-methylpyrazolo[1,5-a]pyridin-2-yl}-1-(cyclopropylmethyl)-1H-indol-6-yl)benzamide]	250 nM
COc1cc(C(=O)N2CCC[C@@H](N)C2)cn2nc(-c3cc4ccc(-c5cccc6[nH]ncc56)cc4n3CC3CC3)c(C)c12 [Example 238, (3R)-1-{2-[1-(Cyclopropylmethyl)-6-(1H-indazol-4-yl)-1H-indol-2-yl]-4-methoxy-3-methylpyrazolo[1,5-a]pyridine-6-carbonyl}piperidin-3-amine]	420 nM
COc1cc(C(=O)N2CCC[C@@H](N)C2)cn2nc(-c3cc4ccc(-c5cc(F)c6[nH]c(=O)ccc6c5C)cc4n3CC3CC3)c(C)c12 [Example 239, 6-(2-{6-[(3R)-3-Aminopiperidine-1-carbonyl]-4-methoxy-3-methylpyrazolo[1,5-a]pyridin-2-yl}-1-(cyclopropylmethyl)-1H-indol-6-yl)-8-fluoro-5-methyl-1,2-dihydroquinolin-2-one]	70 nM
COc1cc(C(=O)N2CCC[C@@H](N)C2)cn2nc(-c3cc4ccc(-c5ccc(NC(C)=O)nc5)cc4n3CC3CC3)c(C)c12 [Example 240, N-[5-(2-{6-[(3R)-3-Aminopiperidine-1-carbonyl]-4-methoxy-3-methylpyrazolo[1,5-a]pyridin-2-yl}-1-(cyclopropylmethyl)-1H-indol-6-yl)pyridin-2-yl]acetamide]	180 nM
COc1cc(C(=O)N2C[C@H](N)C[C@@H](F)C2)cn2nc(-c3cc4ccc(N5CCC(C(=O)N(C)C)CC5)cc4n3CC3CC3)c(C)c12 [Example 242, 1-(2-{6-[(3R,5R)-3-Amino-5-fluoropiperidine-1-carbonyl]-4-methoxy-3-methylpyrazolo[1,5-a]pyridin-2-yl}-1-(cyclopropylmethyl)-1H-indol-6-yl)-N,N-dimethylpiperidine-4-carboxamide]	90 nM
COc1cc(C(=O)N2C[C@H](N)C[C@@H](F)C2)cn2nc(-c3cc4ccc(N5CCC(N(C)C(C)=O)CC5)cc4n3CC3CC3)c(C)c12 [Example 243, N-[1-(2-{6-[(3R,5R)-3-Amino-5-fluoropiperidine-1-carbonyl]-4-methoxy-3-methylpyrazolo[1,5-a]pyridin-2-yl}-1-(cyclopropylmethyl)-1H-indol-6-yl)piperidin-4-yl]-N-methylacetamide]	4120 nM
COc1cc(C(=O)N2C[C@H](N)C[C@@H](F)C2)cn2nc(-c3cc4ccc(N5CCC(N(C)C(C)=O)CC5)cc4n3CC3CC3)c(C)c12 [Example 244, N-[1-(2-{6-[(3R,5R)-3-Amino-5-fluoropiperidine-1-carbonyl]-4-methoxy-3-methylpyrazolo[1,5-a]pyridin-2-yl}-1-(cyclopropylmethyl)-1H-indol-6-yl)piperidin-4-yl]-N-methylacetamide]	70 nM
COC(=O)N(C)C1CCN(c2ccc3cc(-c4nn5cc(C(=O)N6C[C@H](N)C[C@@H](F)C6)cc(OC)c5c4C)n(CC4CC4)c3c2)CC1 [Example 245, Methyl N-[1-(2-{6-[(3R,5R)-3-amino-5-fluoropiperidine-1-carbonyl]-4-methoxy-3-methylpyrazolo[1,5-a]pyridin-2-yl}-1-(cyclopropylmethyl)-1H-indol-6-yl)piperidin-4-yl]-N-methylcarbamate]	70 nM
COc1cc(C(=O)N2C[C@H](N)C[C@@H](F)C2)cn2nc(-c3cc4ccc(N5CCC(N(C)S(C)(=O)=O)CC5)cc4n3CC3CC3)c(C)c12 [Example 246, N-[1-(2-{6-[(3R,5R)-3-Amino-5-fluoropiperidine-1-carbonyl]-4-methoxy-3-methylpyrazolo[1,5-a]pyridin-2-yl}-1-(cyclopropylmethyl)-1H-indol-6-yl)piperidin-4-yl]-N-methylmethanesulfonamide]	130 nM
COc1cc(C(=O)N2C[C@H](N)C[C@@H](F)C2)cn2nc(-c3cc4ccc(N5CC(N(C)S(C)(=O)=O)C5)cc4n3CC3CC3)c(C)c12 [Example 247, N-[1-(2-{6-[(3R,5R)-3-Amino-5-fluoropiperidine-1-carbonyl]-4-methoxy-3-methylpyrazolo[1,5-a]pyridin-2-yl}-1-(cyclopropylmethyl)-1H-indol-6-yl)azetidin-3-yl]-N-methylmethanesulfonamide]	120 nM
COc1cc(C(=O)N2CCC[C@@H](N)C2)cn2nc(-c3cc4ccc(N5CCC(S(C)(=O)=O)CC5)cc4n3CC3CC3)c(C)c12 [Example 248, (3R)-1-{2-[1-(Cyclopropylmethyl)-6-(4-methanesulfonylpiperidin-1-yl)-1H-indol-2-yl]-4-methoxy-3-methylpyrazolo[1,5-a]pyridine-6-carbonyl}piperidin-3-amine]	60 nM
